# Experimental data taken from PMC10518257 (Nature Cancer, 2023).
# “And” between values parts separate entries of the source, which are not always exact repeats. Equal entries are not always repeated. Where two headings read alike, the source gives them in different places.
# Columns and labels:
# Ba/F3-RET^M918T = assay: Growth inhibition assay in Ba/F3 cells (CellTiter-Glo, 72 h); assay type: cell-based; details: Mus musculus, BaF3, 72 h, read-out: GI50 value (Mean ± SD), Ba/F3-RET^M918T, CellTiter-Glo, 72 h
# [1] = test system: Ba/F3 cells expressing KIF5B–RET^V804M; assay: as above; assay type: cell-based; details: replicate sets
# [2] = test system: LUAD-0002AS1 cells (KIF5B::RET); assay: Dose-response western blotting, EC50 for inhibition of protein phosphorylation; assay type: cell-based; details: Homo sapiens, LUAD-0002AS1, 2 h, densitometry
# TT cells (RET C634W) = assay: as above; assay type: cell-based; details: Homo sapiens
# [3] = test system: HBECp53-RET cells (CCDC6-RET fusion); assay: Growth inhibition (alamarBlue, 96 h); assay type: cell-based, human; details: for raw viability signal (Source Data Fig. 3b-c): HBEC-RET, replicate sets
# LC-2/ad cells = assay: Growth inhibition (alamarBlue, 96 h); assay type: cell-based, human; details: for raw viability signal (Source Data Fig. 3b-c): LC-2/Ad, replicate sets
# LUAD-0086AS3 cells = assay: Growth inhibition (alamarBlue, 96 h); assay type: cell-based, human; details: for raw viability signal (Source Data Fig. 3b-c): LUAD-0086AS3 (n=1, 3 replicates)
# MMNK1 cholangiocytes = assay: Growth inhibition (alamarBlue, 96 h); assay type: cell-based, human; details: for raw viability signal (Source Data Fig. 3b-c): MMNK, replicates
# [4] = test system: Ba/F3 KIF5B–RET^WT allograft tumors; assay: Subcutaneous allograft efficacy study; assay type: in vivo, BALB/c nude mice; details: Ba/F3-KIF5B::RET, Ext. Data Fig. 9a
# [5] = Homo sapiens, 96 h, read-out: IC50 for Inhibition of Growth (95% CI)
smiles,measurement,setting,value
COc1ccc(CN2C3CC2CN(c2ccc(-c4cc(OCC(C)(C)O)cn5ncc(C#N)c45)cn2)C3)cn1 [Selpercatinib],GI50,Ba/F3-RET^M918T,1.24 ± 0.78 nM
same,GI50,[1]; Ba/3-KIF5B-RET-V804M,36.4 nM and 32.9 nM
same,GI50,"[1]; Mus musculus, BaF3, Ba/3-KIF5B-RET-V804M",30.6 nM
same,EC50,"[2]; read-out: EC50 for Inhibition of Protein Phosphorylation (95% CI), AKT S473",2 nM
same,EC50,"[2]; read-out: EC50 for Inhibition of Protein Phosphorylation (95% CI), ERK1/2 T202/Y204",1.5 nM
same,EC50,"[2]; read-out: EC50 for Inhibition of Protein Phosphorylation (95% CI), MEK1/2 S217/S221",1.3 nM
same,EC50,"[2]; read-out: EC50 for Inhibition of Protein Phosphorylation (95% CI), P70 RSK T421/S424",1.4 nM
same,EC50,"[2]; read-out: EC50 for Inhibition of Protein Phosphorylation (95% CI), RET Y905",0.4 nM
same,EC50,"[2]; read-out: EC50 for Inhibition of Protein Phosphorylation (95% CI), S6RP S235/S236",0.5 nM
same,EC50,"TT cells (RET C634W); read-out: EC50 for Inhibition of Protein Phosphorylation (95% CI), AKT S473, 2 h, densitometry",1.9 nM
same,EC50,"TT cells (RET C634W); read-out: EC50 for Inhibition of Protein Phosphorylation (95% CI), ERK1/2 T202/Y204, 2 h, densitometry",0.2 nM
same,EC50,"TT cells (RET C634W); read-out: EC50 for Inhibition of Protein Phosphorylation (95% CI), MEK1/2 S217/S221, 2 h, densitometry",1.9 nM
same,EC50,"TT cells (RET C634W); read-out: EC50 for Inhibition of Protein Phosphorylation (95% CI), P70 RSK T421/S424, 2 h, densitometry",1.7 nM
same,EC50,"TT cells (RET C634W); read-out: EC50 for Inhibition of Protein Phosphorylation (95% CI), RET Y905, 2 h, densitometry",11.8 nM
same,EC50,"TT cells (RET C634W); read-out: EC50 for Inhibition of Protein Phosphorylation (95% CI), S6RP S235/S236, 2 h, densitometry",0.6 nM
same,raw viability signal (Source Data Fig. 3b-c),[3]; 0.01 nM,18093.2 and 9060.84 and 18084.5
same,raw viability signal (Source Data Fig. 3b-c),[3]; 0.1 nM,17267.5 and 9270.44 and 17759.2
same,raw viability signal (Source Data Fig. 3b-c),[3]; 1 nM,17188.9 and 9066.79 and 17837.1
same,raw viability signal (Source Data Fig. 3b-c),[3]; 10 nM,6462.76 and 8147.32 and 16191.8
same,raw viability signal (Source Data Fig. 3b-c),[3]; 100 nM,3445.11 and 2694.56 and 6209.19
same,raw viability signal (Source Data Fig. 3b-c),[3]; 1000 nM,2899.6 and 1772.22 and 5277.83
same,raw viability signal (Source Data Fig. 3b-c),[3]; 10000 nM,2192.17 and 1006.02 and 4021.33
same,IC50,"[3]; Homo sapiens, 96 h, read-out: IC50 for Inhibition of Growth (95% CI), HBECp53-RET, alamarBlue, 96 h",26 nM
same,IC50,"LC-2/ad cells; Homo sapiens, LC-2-ad, 96 h, read-out: IC50 for Inhibition of Growth (95% CI)",12 nM
same,raw viability signal (Source Data Fig. 3b-c),LC-2/ad cells; 0.01 nM,13499 and 23395.2
same,raw viability signal (Source Data Fig. 3b-c),LC-2/ad cells; 0.1 nM,14768.6 and 22354.3
same,raw viability signal (Source Data Fig. 3b-c),LC-2/ad cells; 1 nM,11358.1 and 22611.3
same,raw viability signal (Source Data Fig. 3b-c),LC-2/ad cells; 10 nM,5849.16 and 13692
same,raw viability signal (Source Data Fig. 3b-c),LC-2/ad cells; 100 nM,4303.48 and 6998.63
same,raw viability signal (Source Data Fig. 3b-c),LC-2/ad cells; 1000 nM,4639.86 and 5076.98
same,raw viability signal (Source Data Fig. 3b-c),LC-2/ad cells; 10000 nM,1761.41 and 1760.41
same,IC50,LUAD-0086AS3 cells; [5],84 nM
same,raw viability signal (Source Data Fig. 3b-c),LUAD-0086AS3 cells; 0.01 nM,32605.6 and 32345.5 and 24840.6
same,raw viability signal (Source Data Fig. 3b-c),LUAD-0086AS3 cells; 0.1 nM,24088.4 and 24382.4 and 28533.2
same,raw viability signal (Source Data Fig. 3b-c),LUAD-0086AS3 cells; 1 nM,21980.7 and 23036.6 and 27631.4
same,raw viability signal (Source Data Fig. 3b-c),LUAD-0086AS3 cells; 10 nM,22728.2 and 21261.8 and 26828.6
same,raw viability signal (Source Data Fig. 3b-c),LUAD-0086AS3 cells; 100 nM,13108.2 and 14842.7 and 15753
same,raw viability signal (Source Data Fig. 3b-c),LUAD-0086AS3 cells; 1000 nM,5050.52 and 4540.04 and 5107.48
same,raw viability signal (Source Data Fig. 3b-c),LUAD-0086AS3 cells; 10000 nM,1139.12 and 1223.75 and 1244.48
same,IC50,MMNK1 cholangiocytes; [5],7930 nM
same,raw viability signal (Source Data Fig. 3b-c),MMNK1 cholangiocytes; 0.01 nM,14041 and 14658.8
same,raw viability signal (Source Data Fig. 3b-c),MMNK1 cholangiocytes; 0.1 nM,13930.7 and 15331
same,raw viability signal (Source Data Fig. 3b-c),MMNK1 cholangiocytes; 1 nM,13461 and 14668.6
same,raw viability signal (Source Data Fig. 3b-c),MMNK1 cholangiocytes; 10 nM,13703.4 and 14128
same,raw viability signal (Source Data Fig. 3b-c),MMNK1 cholangiocytes; 100 nM,13905.3 and 14051.8
same,raw viability signal (Source Data Fig. 3b-c),MMNK1 cholangiocytes; 1000 nM,12731.7 and 12599.2
same,raw viability signal (Source Data Fig. 3b-c),MMNK1 cholangiocytes; 10000 nM,6976.41 and 6993.09
same,Tumor Volume Mean,"[4]; 3 mg/kg BID, Day 1",153.36 mm3
same,Tumor Volume Mean,"[4]; 3 mg/kg BID, Day 4",200.42 mm3
same,Tumor Volume Mean,"[4]; 3 mg/kg BID, Day 8",331.73 mm3
same,Tumor Volume Mean,"[4]; 3 mg/kg BID, Day 11",595.39 mm3
same,Tumor Volume Mean,"[4]; 3 mg/kg BID, Day 15",703.72 mm3
same,Tumor Volume Mean,"[4]; 10 mg/kg BID, Day 1",152.35 mm3
same,Tumor Volume Mean,"[4]; 10 mg/kg BID, Day 4",168.16 mm3
same,Tumor Volume Mean,"[4]; 10 mg/kg BID, Day 8",206.58 mm3
same,Tumor Volume Mean,"[4]; 10 mg/kg BID, Day 11",318.64 mm3
same,Tumor Volume Mean,"[4]; 10 mg/kg BID, Day 15",406.01 mm3
same,Tumor Volume Mean,"[4]; 30 mg/kg BID, Day 1",155.70 mm3
same,Tumor Volume Mean,"[4]; 30 mg/kg BID, Day 4",126.28 mm3
same,Tumor Volume Mean,"[4]; 30 mg/kg BID, Day 8",138.87 mm3
same,Tumor Volume Mean,"[4]; 30 mg/kg BID, Day 11",107.82 mm3
same,Tumor Volume Mean,"[4]; 30 mg/kg BID, Day 15",112.41 mm3
same,Tumor Volume Mean,"[4]; 100 mg/kg BID, Day 1",157.17 mm3
same,Tumor Volume Mean,"[4]; 100 mg/kg BID, Day 4",107.92 mm3
